The results in this text go back to patent US9950987B2, “Aspirin derivatives and uses thereof” (North Carolina Agricultural and Technical State University, priority 2012, dated 2018).

Entries after “also recorded” stand apart in the source; their conditions may differ.

Data set [1] has as its system HCT-116 human colon cancer cells. Nature of the data set: MTT growth inhibition assay, HCT-116. To be noted: 48 h, relative to control. It counts as cell-based. As to the method: (§1) The effects of the aspirin-stilbene derivative conjugates compared to standards were evaluated based on the inhibition of growth of HCT-116 and HT-29 human colon cancer cells. Cells were plated in 96-well plates in growth medium with 10% FBS. After 24 h, the medium was replaced with fresh medium containing test agent with desired final concentration (20, 30, 40, 50, and 60 μM), and the cells were incubated for 48 h. Viable cells were analyzed using the MTT assay, and the results are shown (FIG. 1) relative to control. Each value represents the mean±S.D. (n=8). FIG. 1, Panel A summarizes the results for aspirin (As), Res, RAS, RAS-1, and the combination of resveratrol and aspirin (Res+As). […] FIG. 1, Panel B summarizes the results for As, MRes, MRAS and the combination of MRes and aspirin (MRes+As). […] FIG. 1, Panel C summarizes the results for As, Pt, PAS, and the combination of pterostilbene and aspirin (Pt+As).
(§2) The effects of As, 6-shogaol (6-s), SAS and the combination of 6-shogaol and aspirin (6-s+As) on the growth of HCT-116 and HT-29 human colon cancer cells and H1299 human lung cancer cells were measured. Cells were plated in 96-well plates in growth medium with 10% FBS. After 24 h, the medium was replaced with fresh medium containing test agent with desired final concentration (5, 7.5, 10, 15, and 20 μM), and the cells were incubated for 48 h. Viable cells were analyzed using the MTT assay, and the results are shown relative to control (FIG. 2).
(§3) The effects of As, 6-gingerol (6g), GAS, and the combination of 6-gingerol and aspirin (6g+As) on the growth of HCT-116 and HT-29 human colon cancer cells and H1299 human lung cancer cells were measured. Cells were plated in 96-well plates in growth medium with 10% FBS. After 24 h, the medium was replaced with fresh medium containing test agent with desired final concentration (20, 40, 60, 80, and 100 μM), and the cells were incubated for 48 h. Viable cells were analyzed using the MTT assay, and the results are shown relative to control (FIG. 3).

Data set [2] concerns HT-29 human colon cancer cells. Put plainly: MTT growth inhibition assay, HT-29. To be noted: 48 h, relative to control. It counts as cell-based. As to the method: as §1, §2, §3
On the technique in general: Formazan colour is commonly taken as a measure of viable cells.

Data set [3] deals with H1299 human lung cancer cells. Nature of the data set: MTT growth inhibition assay, H1299. It counts as cell-based. To be noted: 48 h, relative to control. The method, then: as §2, §3
Data set [4] in a line: Urinary metabolic profile in mice (LC/MS). It counts as in vivo. Particulars: oral gavage 200 mg/kg, 24 h urine, FIG. 5. As to the method:
The metabolic profile of Pt using LC/MS 23 was investigated. PAS was administered to mice (n=5) by oral gavage (200 mg/kg), and urine samples were collected in metabolism cages for 24 h after administration of vehicle (control mice) or PAS. LC/MS methods were developed to analyze PAS, pterostilbene, and aspirin. LC chromatograms of urine samples collected from PAS-treated mice obtained using positive APCI-MS interface (FIG. 5): (A) before and (B) after enzymatic hydrolysis (treated with β-glucuronidase and sulfatase); using negative ESI-MS interface: (C) before and (D) after enzymatic hydrolysis.
PAS had the highest response under positive APCI/MS mode, and aspirin and salicylic acid had the highest response under negative ESI/MS mode. Both positive APCI/MS and negative ESI/MS modes are sensitive to pterostilbene. However, aspirin and salicylic acid are hardly detectable under positive APCI/MS mode, and PAS is not detectable under negative ESI/MS mode. Therefore, APCI/MS positive mode was used to analyze PAS, pterostilbene, and their metabolites, and ESI/MS negative mode was used to analyze aspirin, pterostilbene, and their metabolites.

Data set [5] relates to human colon cancer cells (HCT-116).
For data set [6], the system named is human colon cancer cells (HT-29).

In the case of `CCCCCC(O)CC(=O)CCc1ccc(OC(=O)c2ccccc2OC(C)=O)c(OC)c1` (stereo not shown) [GAS, 6-gingerol aspirinate], the growth inhibitory effect entry is “much stronger growth inhibitory effect than 6-gingerol and aspirin alone, as well as the combination of 6-gingerol and aspirin (1:1)” in data set [1] (20, 40, 60, 80, 100 μM, FIG. 3); “much stronger growth inhibitory effect than 6-gingerol and aspirin alone, as well as the combination of 6-gingerol and aspirin (1:1)” in data set [2] (20, 40, 60, 80, 100 μM, FIG. 3); “much stronger growth inhibitory effect than 6-gingerol and aspirin alone, as well as the combination of 6-gingerol and aspirin (1:1)” in data set [3] (20, 40, 60, 80, 100 μM, FIG. 3).
With `COc1cc(C=Cc2ccc(OC(=O)c3ccccc3OC(C)=O)cc2)cc(OC)c1` [PAS, pterostilbene aspirinate], the growth inhibitory effect result is “weaker growth inhibitory effects than pterostilbene and the combination of pterostilbene and aspirin (1:1)” in data set [1] (20, 30, 40, 50, 60 μM, FIG. 1); “weaker growth inhibitory effects than pterostilbene and the combination of pterostilbene and aspirin (1:1)” in data set [2] (20, 30, 40, 50, 60 μM, FIG. 1). The “detection of parent compound or deacetylated metabolites in urine” value in data set [4] was “neither PAS nor its deacetylated metabolites were detected”. The “hydrolysis in vivo (urinary metabolites)” value in data set [4] was “hydrolyzed in mice to generate metabolites of aspirin and pterostilbene”.
For `CC(=O)Oc1ccccc1C(=O)Oc1ccc(/C=C/c2cc(O)cc(O)c2)cc1` [RAS, 4′-aspirinated resveratrol], the growth inhibitory effect result in data set [1] (20, 30, 40, 50, 60 μM, FIG. 1) is “stronger growth inhibitory effect than resveratrol and aspirin alone, and stronger than the combination of resveratrol and aspirin (1:1); also recorded: much stronger growth inhibitory effects than RAS-1, MRAS, and PAS”; in data set [2] (20, 30, 40, 50, 60 μM, FIG. 1), “stronger growth inhibitory effect than resveratrol and aspirin alone, and stronger than the combination of resveratrol and aspirin (1:1); also recorded: much stronger growth inhibitory effects than RAS-1, MRAS, and PAS”. Moreover, the hydrolysis in cells result in data set [5] is “hydrolyzed in human colon cancer cells (HCT-116 and HT-29) to generate resveratrol and aspirin”; in data set [6] it was “hydrolyzed in human colon cancer cells (HCT-116 and HT-29) to generate resveratrol and aspirin”.
For `CCCCC/C=C/C(=O)CCc1ccc(OC(=O)c2ccccc2OC(C)=O)c(OC)c1` [SAS, 6-shogaol aspirinate], the growth inhibitory effect result is “stronger growth inhibitory effect than aspirin alone, but less effective than 6-shogaol alone and the combination of 6-shogaol and aspirin (1:1)” in data set [1] (5, 7.5, 10, 15, 20 μM, FIG. 2); “stronger growth inhibitory effect than aspirin alone, but less effective than 6-shogaol alone and the combination of 6-shogaol and aspirin (1:1)” in data set [2] (5, 7.5, 10, 15, 20 μM, FIG. 2); “stronger growth inhibitory effect than aspirin alone, but less effective than 6-shogaol alone and the combination of 6-shogaol and aspirin (1:1)” in data set [3] (5, 7.5, 10, 15, 20 μM, FIG. 2).
Take “mono-methylated resveratrol aspirinate [MRAS]”: the growth inhibitory effect entry in data set [1] (20, 30, 40, 50, 60 μM, FIG. 1) was “weaker growth inhibitory effects than MRes and the combination of MRes and aspirin (1:1)”; in data set [2] (20, 30, 40, 50, 60 μM, FIG. 1), “weaker growth inhibitory effects than MRes and the combination of MRes and aspirin (1:1)”.
